# US8163778B2 (Hoffmann-LA Roche Inc., priority 2007, dated 2012)
# Biological target: T1, human liver FBPase (Homo sapiens, UniProt P09467)
# T1 construct: made in house; host or cells: E. coli
# T1 sequence (P09467 2-338 limits assumed): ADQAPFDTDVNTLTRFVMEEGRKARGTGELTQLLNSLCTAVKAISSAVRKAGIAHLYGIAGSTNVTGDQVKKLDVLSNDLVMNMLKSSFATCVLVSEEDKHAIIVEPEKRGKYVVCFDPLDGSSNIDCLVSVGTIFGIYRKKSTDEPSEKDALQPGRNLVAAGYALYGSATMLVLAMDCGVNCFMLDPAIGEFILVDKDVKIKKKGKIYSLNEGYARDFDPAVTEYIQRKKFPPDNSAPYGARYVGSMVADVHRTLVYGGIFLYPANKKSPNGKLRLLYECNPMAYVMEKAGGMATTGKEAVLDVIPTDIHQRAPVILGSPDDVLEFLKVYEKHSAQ
# Assay: FBPase assay (malachite green phosphate release)
# Assay type: biochemical
# Settings: recombinant human liver FBPase, 50 μM fructose-1,6-bisphosphate
# Experimental: The following tests were carried out for evaluating the inhibitory activity of the compounds of the present invention against human liver FBPase (Swissprot Data base reference PO9467, entry F16P_HUMAN).
# Human liver FBPase cDNA (NM_000507) was purchased from Origene Technologies, Inc, subcloned in a vector for expression in E. Coli., and sequenced. Recombinant human liver FBPase (hlFBPase) was purified according to the following protocol that uses heat denaturation similarly to that described by El-Maghrabi et al. [El-Maghrabi, M. R. et al. “Isolation of a human liver fructose-1,6-bisphosphatase cDNA and expression of the protein in Escherichia coli.” J Biol Chem 268:9466-9472, 1993.]. Briefly, E. coli cells, transiently expressing very high levels of soluble and active human liver FBPase, were suspended in 20 mM Tris-HCl pH 7.5, 1 mM EDTA, 1 mM DTT and were lysed by French press. The soluble extract was heat denatured at 65° C. for 5 min, and insoluble, denatured proteins were removed by centrifugation. The extract was then applied to a BioRad Macro-Prep High Q column equilibrated with 20 mM Tris-HCl pH 7.5, 1 mM EDTA, 1 mM DTT and the flow-through (containing FBPase activity) was collected and applied to a BioRad Macro-Prep HS column equilibrated with 20 mM HEPES pH 7.2, 1 mM DTT. A gradient of increasing NaCl concentration was then applied to the HS column and fractions were collected. Fractions containing active FBPase were pooled and further purified by size exclusion chromatography on a Sephacryl S200 column equilibrated in 20 mM Tris-HCl pH 7.5, 150 mM NaCl, 1 mM EDTA, 1 mM DTT. Purity of the enzyme preparation was >90% as assessed by Mass spectrometry.
# Recombinant human liver FBPase (hlFBPase) activity was assayed through measuring the inorganic phosphate release that results from the hydrolysis of Fructose-1,6-bisphosphate by the enzyme. As described by Baykov A. A. et al. in [Baykov A. A et al., “Malachite Green procedure for orthophosphate determination and its use in alkaline phosphatase-based enzyme immunoassays”. Anal. Biochem., 171:266-270, 1988], inorganic phosphate can be readily quantified by spectrophotometry at 620 nm after complexation with ammonium molybdate/malachite green reagent. Enzymatic reaction was carried out with modifications of the procedure described by Wright S. W. et al. [Wright S. W. et al., “Anilinoquinazoline inhibitors of Fructose-1,6-bisphosphatase bind to a novel allosteric site: synthesis, in vitro characterization, and X-ray crystallography”. J. Med. Chem. 45:3865-3877, 2002]. Specifically, the reaction was carried out in 96 well plates in a final volume of 100 μl in the presence or in the absence of allosteric inhibitors. Reaction was started adding 25 ng of hlFBPase to the reaction mixture containing 50 mM HEPES-KOH buffer pH 7.2, 2 mM MgCl2, 2 mM EDTA, 1 mM DTT, 50 μM fructose-1,6-bisphosphate and 1% DMSO. After 50 minutes incubation at room temperature, the phosphate released was allowed to form a colored complex for 10 min by adding 150 μl of ammonium molybdate/malachite green reagent containing 0.03% malachite green, 0.2% ammonium molybdate, 0.05% Triton X-100 and 0.7 M H2SO4 in water that was stirred for 30 min at room temperature and filtered through 0.2 μm filter. Under these conditions, the assay was linear with time and able to detect FBPase inhibition after spectrophotometric read-out at 620 nm.
row,Structure (SMILES),IC50
1,"COCCc1sc(S(=O)(=O)NC(=O)Nc2cc(SC)cc(NCCC(F)(F)F)n2)cc1C [Compound 75, 5-(2-Methoxyethyl)-4-methyl-N-({4-(methylthio)-6-[(3,3,3-trifluoropropyl)amino]pyridin-2-yl}carbamoyl)thiophene-2-sulfonamide]",1.69 µM
2,"COCCc1sc(S(=O)(=O)NC(=O)Nc2cc(OC)cc(NC(N)=O)n2)cc1C [Compound 24, N-{[6-(Carbamoylamino)-4-methoxypyridin-2-yl]carbamoyl}-5-(2-methoxyethyl)-4-methylthiophene-2-sulfonamide]",0.259 µM
3,"Cc1csc(S(=O)(=O)NC(=O)Nc2cc(C(F)(F)F)cc(C)n2)c1 [Compound 122, 4-Methyl-N-{[6-methyl-4-(trifluoromethyl)pyridin-2-yl]carbamoyl}thiophene-2-sulfonamide]",0.73 µM
4,"COCCc1sc(S(=O)(=O)NC(=O)Nc2cc(C(F)(F)F)c(F)c(N)n2)cc1C [Compound 79, N-{[6-Amino-5-fluoro-4-(trifluoromethyl)pyridin-2-yl]carbamoyl}-5-(2-methoxyethyl)-4-methylthiophene-2-sulfonamide]",0.558 µM
5,"CNC(=O)Nc1cc(Br)cc(NC(=O)NS(=O)(=O)c2csc(C)c2)n1 [Compound 3, N-({4-bromo-6-[(methylcarbamoyl)amino]pyridin-2-yl}carbamoyl)-5-methylthiophene-3-sulfonamide]",0.059 µM
6,"O=C(Nc1cc(Br)cc(NC(=O)NS(=O)(=O)c2cccc(Cl)c2)n1)NS(=O)(=O)c1cccc(Cl)c1 [Compound 67, N,N′-[(4-Bromopyridine-2,6-diyl)bis(iminocarbonyl)]bis(3-chlorobenzenesulfonamide)]",2.51 µM
7,"CNC(=O)c1cc(C(F)(F)F)cc(NC(=O)NS(=O)(=O)c2cc(C)c(CCO)s2)n1 [Compound 97, Methyl-6-[({[5-(2-hydroxyethyl)-4-methyl-2-thienyl]sulfonyl}carbamoyl)amino]-4-(trifluoromethyl)pyridine-2-carboxamide]",0.278 µM
8,"COCCc1sc(S(=O)(=O)NC(=O)Nc2cc(Br)cc(N3CCOCC3)n2)cc1C [Compound 31, N-[(4-Bromo-6-morpholin-4-ylpyridin-2-yl)carbamoyl]-5-(2-methoxyethyl)-4-methylthiophene-2-sulfonamide]",0.429 µM
9,"CCOC(=O)c1cc(NC(=O)NC)nc(NC(=O)NS(=O)(=O)c2cc(C)c(CCOC)s2)c1 [Compound 99, Ethyl-2-[({[5-(2-methoxyethyl)-4-methyl-2-thienyl]sulfonyl}carbamoyl)amino]-6-[(methylcarbamoyl)amino]isonicotinate]",0.92 µM
10,"CNC(=O)Nc1cc(SC)cc(NC(=O)NS(=O)(=O)c2coc3ccccc23)n1 [Compound 89, N-({6-[(Methylcarbamoyl)amino]-4-(methylthio)pyridin-2-yl}carbamoyl)-1-benzofuran-3-sulfonamide]",0.5 µM
11,"CNC(=O)Nc1cc(OC)cc(NC(=O)NS(=O)(=O)c2cc3cc(C)ccc3s2)n1 [Compound 7, N-({4-Methoxy-6-[(methylcarbamoyl)amino]pyridin-2-yl}carbamoyl)-5-methyl-1-benzothiophene-2-sulfonamide]",0.1 µM
12,"CNC(=O)Nc1cc(C#N)cc(NC(=O)NS(=O)(=O)c2cc(C)c(CCOC)s2)n1 [Compound 23, N-({4-Cyano-6-[(methylcarbamoyl)amino]pyridin-2-yl}carbamoyl)-5-(2-methoxyethyl)-4-methylthiophene-2-sulfonamide]",0.242 µM
13,"CNC(=O)Nc1cc(OC)cc(NC(=O)NS(=O)(=O)c2cc(C)c(OCCOC)s2)n1 [Compound 38, 5-(2-Methoxyethoxy)-N-({4-methoxy-6-[(methylcarbamoyl)amino]pyridin-2-yl}carbamoyl)-4-methylthiophene-2-sulfonamide]",0.582 µM
14,"COCCc1sc(S(=O)(=O)NC(=O)Nc2cc(C)cc(N3CCc4ccccc4C3)n2)cc1C [Compound 56, N-{[6-(3,4-Dihydroisoquinolin-2(1H)-yl)-4-methylpyridin-2-yl]carbamoyl}-5-(2-methoxyethyl)-4-methylthiophene-2-sulfonamide]",1.73 µM
15,"COCCc1sc(S(=O)(=O)NC(=O)Nc2cc(Br)cc(N)n2)cc1Cl [Compound 11, N-[(6-Amino-4-bromopyridin-2-yl)carbamoyl]-4-chloro-5-(2-methoxyethyl)thiophene-2-sulfonamide]",0.132 µM
16,"COCCc1sc(S(=O)(=O)NC(=O)Nc2cc(SC)cc(C(=O)O)n2)cc1C [Compound 88, Sodium-6-[({[5-(2-methoxyethyl)-4-methyl-2-thienyl]sulfonyl}carbamoyl)amino]-4-(methylthio)pyridine-2-carboxylate]",55.4 µM
17,"COCCc1sc(S(=O)(=O)NC(=O)Nc2cc(SC)cc(Br)n2)cc1C [Compound 25, N-{[6-Bromo-4-(methylthio)pyridin-2-yl]carbamoyl}-5-(2-methoxyethyl)-4-methylthiophene-2-sulfonamide]",0.26 µM
18,"COCCc1sc(S(=O)(=O)NC(=O)Nc2cc(-c3noc(C)n3)cc(N)n2)cc1C [Compound 110, N-{[6-Amino-4-(5-methyl-1,2,4-oxadiazol-3-yl)pyridin-2-yl]carbamoyl}-5-(2-methoxyethyl)-4-methylthiophene-2-sulfonamide]",16.4 µM
19,"COCc1sc(S(=O)(=O)NC(=O)Nc2cc(Br)cc(N)n2)cc1C [Compound 21, N-[(6-Amino-4-bromopyridin-2-yl)carbamoyl]-5-(methoxymethyl)-4-methylthiophene-2-sulfonamide]",0.225 µM
20,"CNC(=O)Nc1cc(OC)cc(NC(=O)NS(=O)(=O)c2cc3cc(OC)ccc3s2)n1 [Compound 13, 5-Methoxy-N-({4-methoxy-6-[(methylcarbamoyl)amino]pyridin-2-yl}carbamoyl)-1-benzothiophene-2-sulfonamide]",0.148 µM
21,"CC(=O)OCCc1sc(S(=O)(=O)NC(=O)Nc2cc(C(F)(F)F)cc(C)n2)cc1C [Compound 111, 2-{3-methyl-5-[({[6-methyl-4-(trifluoromethyl)pyridin-2-yl]carbamoyl}amino)sulfonyl]-2-thienyl}ethyl acetate]",0.345 µM
22,"COCCc1sc(S(=O)(=O)NC(=O)Nc2cc(SC)cc(NCCCC(=O)OC)n2)cc1C [Compound 73, Methyl-4-({6-[({[5-(2-methoxyethyl)-4-methyl-2-thienyl]sulfonyl}carbamoyl)amino]-4-(methylthio)pyridin-2-yl}amino)butanoate]",1.74 µM
23,"CNC(=O)Nc1cc([S+](C)[O-])cc(NC(=O)NS(=O)(=O)c2cc(C)c(CCOC)s2)n1 (stereo not shown) [Compound 94, 5-(2-Methoxyethyl)-4-methyl-N-({6-[(methylcarbamoyl)amino]-4-(methylsulfinyl)pyridin-2-yl}carbamoyl)thiophene-2-sulfonamide]",1.6 µM
24,"CNC(=O)Nc1cc(SC)cc(NC(=O)NS(=O)(=O)c2csc(C)c2)n1 [Compound 16, 5-Methyl-N-({6-[(methylcarbamoyl)amino]-4-(methylthio)pyridin-2-yl}carbamoyl)thiophene-3-sulfonamide]",0.096 µM
25,"COCCc1sc(S(=O)(=O)NC(=O)Nc2cc(Br)cc(NCc3ccc(OC)cc3OC)n2)cc1C [Compound 66, N-({4-Bromo-6-[(2,4-dimethoxybenzyl)amino]pyridin-2-yl}carbamoyl)-5-(2-methoxyethyl)-4-methylthiophene-2-sulfonamide]",2.35 µM
